Read-outs that look alike come from different tables or passages of the source.
Legend:
[1] = cited from earlier work
[2] = in vivo; design: species or system female CD-1 mice (Mus musculus L.)
Procedure: Pharmacokinetic parameters were evaluated in female CD-1 mice (Mus musculus L.) provided by the vivarium of the Faculty of Higher Studies, Zaragoza, National Autonomous University of Mexico. All mice were clinically healthy, approximately 12 weeks old, and weighed ~30 g. […] Female mice were selected as the available cohort from the institutional vivarium, and their use allowed us to establish baseline pharmacokinetic parameters under standardized conditions. […] Animals were randomly assigned to treatment groups. Treatment allocation and sample collection were blinded. All experimental procedures were approved by the Research Ethics Committee of the Faculty of Higher Studies, Zaragoza (FESZ/CEI/1/1/5/27/23).
For the HPLC quantification of metabolites, concentrations were expressed as µg/mL for serum and urine and as µg/mg of tissue for liver samples. The results were translated into graphical form using the identified metabolites. The Cmax and time to reach maximum concentration (Tmax) of the secondary metabolites were obtained directly from the concentration–time curve.
The area under the plasma concentration–time curve from time zero to the last measurable concentration ( AUC0−t ) was calculated using the linear trapezoidal rule, according to the following formula: AUC0−t=∑i=1n−1Ci+Ci+1/2×ti+1−ti where Ci and Ci+1 are the plasma concentrations at consecutive time points ti and ti+1 . The total area under the curve ( AUC0−∞ ) was obtained as the sum of AUC0−t and the extrapolated area from the last measurable concentration to infinity, calculated as:(1) AUC0−∞=AUC0−t+Clast/kel where Clast is the final observed concentration and kel is the terminal final elimination constant estimated from the slope of the log-linear portion of the concentration–time curve.

[3] = cited from earlier work; remark: listed apart in the source
[4] = female, CD-1, mouse, in vivo, po, 8 mg/kg
[5] = mice, serum, oral extract 8, 125, 250 mg/kg, 1, 6, 24, 48 h
[6] = mice, liver, oral extract 8, 125, 250 mg/kg, 1, 6, 24, 48 h
[7] = mice, oral extract 8, 125, 250 mg/kg, 1, 6, 24, 48 h
[8] = mice, plasma, oral extract 8 mg/kg

O=c1cc(-c2ccc(O)cc2)oc2cc(O)cc(O)c12 [Apigenin]
T1/2 ([1]; reported in rats): 1.8 to 4.2 h
AUC [2, 4]: 2390 ± 210 ng·h/mL
AUC(0-t) [2, 4]: 2120 ng·h/mL
Clearance [2, 4]: 13.7 mL/min/kg
Cmax [2, 4]: 850 ± 70 ng/mL
T1/2 [2, 4]: greater than 5.6 h
Vd [2, 4]: 3.4 ± 0.5 L/kg
half-life ([2]; female, CD-1, mouse, in vivo, po, 8 mg/kg, T1/2): 5.6 ± 0.3 h
Tmax ([2]; female, CD-1, mouse, in vivo, po, 8 mg/kg, Tmax): 1.5 ± 0.3 h
serum concentration, change with dose and time [2, 5]: significantly increased with the 125 mg/kg doses at 24 and 48 h

CC(C)(O)/C=C/C(=O)[C@](C)(O)[C@H]1[C@H](O)C[C@@]2(C)[C@@H]3CC=C4[C@@H](C[C@H](O)C(=O)C4(C)C)[C@]3(C)C(=O)C[C@]12C [CuD, Cucurbitacin D]
Tmax ([2]; female, CD-1, mouse, in vivo, mice, serum/plasma, oral extract 125 mg/kg, read-out: Tmax): 24 h
liver concentration, change with dose and time [2, 6]: no significant variations

CC(C)(O)/C=C/C(=O)[C@](C)(O)[C@H]1[C@H](O)C[C@@]2(C)[C@@H]3CC=C4[C@@H](C=C(O)C(=O)C4(C)C)[C@]3(C)C(=O)C[C@]12C [CuI, cucurbitacin I]
liver concentration, change with dose and time [2, 6]: no significant variations
liver concentration ([2]; mice, liver, oral extract 125 and 250 mg/kg): > 20 µg/mg
serum concentration, change with dose and time [2, 5]: concentrations remained near the limit of quantification

CC(=O)OC(C)(C)CCC(=O)[C@](C)(O)[C@H]1[C@H](O)C[C@@]2(C)[C@@H]3CC=C4[C@@H](C[C@H](O)[C@@H](O)C4(C)C)[C@]3(C)C(=O)C[C@]12C [CuIIA, cucurbitacin IIA]
time of absorption (Tmax) in previous reports [3]: ~ 20 min
liver concentration, change with dose and time [2, 6]: remained significant for up to 48 h with the 250 mg/kg treatment
serum Tmax ([2]; mice, serum, across all doses (8, 125, 250 mg/kg)): 24 h
serum concentration, change with dose and time [2, 5]: transient decrease to near-zero concentrations at 6 h, followed by a marked increase at 24 h
urine concentration, change with dose and time [2, 7]: high concentrations were observed in urine

CC(=O)OC(C)(C)/C=C/C(=O)[C@](C)(O)[C@H]1[C@H](O)C[C@@]2(C)[C@@H]3CC=C4[C@@H](C=C(O)C(=O)C4(C)C)[C@]3(C)C(=O)C[C@]12C [Cucurbitacin E, cucurbitacin E]
peak plasma concentration ([3]; at 2 h post-dose): approximately 0.009 µg/mL
Cmax ([2]; female, CD-1, mouse, in vivo, po, 8 mg/kg, read-out: Cmax): 420 ng/mL
Tmax ([2]; female, CD-1, mouse, in vivo, mice, plasma, oral extract 8 mg/kg, Table S1, unit inferred, read-out: Tmax): 2.5 ± 0.3 h
AUC(0-t) ([2]; female, CD-1, mouse, in vivo, mice, plasma, oral extract 8 mg/kg, read-out: AUC0−t): 1450 ± 110 ng·h/mL
AUC ([2]; female, CD-1, mouse, in vivo, mice, plasma, oral extract 8 mg/kg, read-out: AUC0 ∞): 1800 ng·h/mL
half-life ([2]; female, CD-1, mouse, in vivo, mice, plasma, oral extract 8 mg/kg, read-out: T1/2 (converted)): 8.4 ± 1.2 h
liver concentration, change with dose and time [2, 6]: no significant variations
Clearance [2, 8]: 10.8 mL/min/kg
Vd [2, 8]: 4.8 L/kg
urine concentration, change with dose and time [2, 7]: clear increase under the 8 mg/kg treatment

O=C1C[C@@H](c2ccc(O)cc2)Oc2cc(O)cc(O)c21 [Naringenin]
liver concentration, change with dose and time ([2]; female, CD-1, mouse, in vivo): significantly decreased after 24–48 h with the 8 mg/kg dose

O=C(CCc1ccc(O)cc1)c1c(O)cc(O)cc1O [Phloretin]
liver concentration, change with dose and time ([2]; female, CD-1, mouse, in vivo): increased significantly with a dose of 125 mg/kg at 6 and 48 h post-treatment
serum concentration, change with dose and time ([2]; female, CD-1, mouse, in vivo): decreased between 6 and 24 h at 125 mg/kg
Tmax ([2]; female, CD-1, mouse, plasma, po, 8 mg/kg, mice, plasma, oral extract 8 mg/kg, Table S1, unit inferred, read-out: Tmax): 2 ± 0.4 h
half-life ([2]; female, CD-1, mouse, plasma, po, 8 mg/kg, mice, plasma, oral extract 8 mg/kg, read-out: T1/2 (converted)): 4.2 ± 0.6 h
Tmax ([2]; female, CD-1, mouse, plasma, po, 8 mg/kg, mice, plasma, oral extract 8 mg/kg, read-out: Tmax): 4.2 h
Cmax ([2]; female, CD-1, mouse, plasma, po, 8 mg/kg, read-out: Cmax): 1120 ng/mL
AUC(0-t) ([2]; female, CD-1, mouse, mice, plasma, oral extract 8 mg/kg, read-out: AUC0−t): 3450 ± 310 ng·h/mL
AUC ([2]; female, CD-1, mouse, mice, plasma, oral extract 8 mg/kg, read-out: AUC0 ∞): 6100 ng·h/mL
Clearance [2, 8]: 13.7 mL/min/kg
Vd [2, 8]: 0.95 L/kg

C[C@@H]1O[C@@H](OC[C@H]2O[C@@H](Oc3c(-c4ccc(O)c(O)c4)oc4cc(O)cc(O)c4c3=O)[C@H](O)[C@@H](O)[C@@H]2O)[C@H](O)[C@H](O)[C@H]1O [Rutin]
serum concentration, change with dose and time [2, 5]: marked decrease at the 250 mg/kg dose

O=c1cc(-c2ccc(O)cc2)oc2cc(O[C@@H]3O[C@H](CO)[C@@H](O)[C@H](O)[C@H]3O)cc(O)c12 [apigenin-7-O-β-D-glucoside, reference compound]
AUC0−t ([1]; rat, in vivo, iv): 680 to 1560 ng·h/mL

COc1ccc([C@@H]2CC(=O)c3c(O)cc(O[C@@H]4O[C@H](CO[C@@H]5O[C@@H](C)[C@H](O)[C@@H](O)[C@H]5O)[C@@H](O)[C@H](O)[C@H]4O)cc3O2)cc1O [hesperidin]
urine concentration, change with dose and time [2, 7]: increased under the 8 mg/kg dose at 6 and 24 h

Source: publication PMC12525650, “Pharmacokinetic Profile of Extracts from the Chayote (Sechium edule) H387 07 Hybrid and Phytochemical Characterization of Its Segregant H387 M16 for Potential Therapeutic Applications” (Molecules, 2025)
